We go through nine compounds from patent publication US7232578B2, “Pharmaceutical composition inducing cancer cell differentiation and the use for treatment and prevention of cancer thereof” (Bio Grand Co., Ltd., priority 2005, dated 2007).

Assay [1] concerns HL-60 cells. Put plainly: Differentiation helper inducer activity (reductive index, retinoic acid-induced HL-60 differentiation, NBT+). In kind it is cell-based. Conditions: for Concentration to reach 0.5 reductive index: methyltransferase inhibitors as differentiation helper inducers, HL-60, retinoic acid, 96 hours; for Concentration to reach 0.5 reductive index (effective dose of differentiation inducer reduced to 50%): MAT inhibitors as differentiation helper inducers.
Description: The differentiation of cancer cells was measured by using leukemic cancer cells HL-60 to quantitate the NBT+ cells. First, HL-60 cells were subcultured at an initial cell density 1.5×10^5 cells/ml, 10 ml/flask. A set of four flasks were used as the control, wherein only retinoic acid was added as differentiation inducer, the amount of which was adjusted to induce NBT+ cells to the range of 15% to 60%. Another flask was used as the blank which was added the solution only. The total amount of methanol in which retinoic acid was dissolved should not exceed 2%, so as not to affect the differentiation of cancer cells. Each of other sets also comprises four flasks, which were added smaller amounts of retinoic acid, and a blank flask with only the solvent. Different amounts of the differentiation helper inducers were added in each set. The cell numbers in every flask were counted after incubation for 96 hours, and NBT was assayed according to the method of Example 4. Generally, the natural differentiation of the HL-60 cells, i.e. without the action of any of the additives, is usually lower than 4%. In the sets containing only differentiation helper inducer, the differentiation of cells is less than 10%. The value of NBT+ in each flask is required to subtract the value of the blank control.
The value of ED50, i.e., the amount of the differentiation inducer required when NBT+ is 50%, can be obtained by plotting the amount against NBT+. The reductive index can be calculated from the ED50 value. Reductive index=ED50 in the presence of differentiation helper inducer/ED50 with cell differentiation inducer only. The lower the reductive index, the higher the activity of the differentiation helper induced.

The subject of assay [2] is HL-60 cancer cells. The assay is described as follows: Completeness of retinoic acid-induced differentiation with helper inducers (NBT test). Type of assay: cell-based. Conditions: 96 hours, FIG. 5. The method, then:
Differentiation helper inducers can not only decrease the effective amount of the differentiation inducer, but also promote the completeness of differentiation. HL-60 cancer cells were subcultured at an initial cell density of 1.5×10^5 cells/ml. The culture flasks were grouped into three sets; each set includes 4-5 flasks. One flask was used as the blank without additives. One set was added 0.025-0.15 μM retinoic acid as the control; the other two sets were added 4 μM of uroerythrin or vitamin B2. NBT test was conducted as described in Example 4 after incubation for 96 hours. The values thus obtained were subtracted with the value obtained by the blank without additives.

Assay [3] concerns HBL-100 breast cancer cells. Put plainly: Inhibition of colony formation of HBL-100 breast cancer cells. Type of assay: cell-based, human. The method, then:
The activity of cancer cell colony formation is determined by using HBL-100 breast cancer cells according to the method described in Example 4, which is expressed by the percentage of the activity of cancer cell colony formation in a control group in which none of the chemicals is added. A group in which thymidine is used alone, a group in which CDA-II is used alone, and a group in which thymidine and CDA-II are used together (1:1) were tested. […] The synergistic effect is remarkable.
The activity of cancer cell colony formation is determined by using HBL-100 breast cancer cells according to the method described in Example 4. Each culture flask contains 5 ml medium, which contains 3000 HBL-100 cells and different amounts of CDA-11, vitamin C or vitamin B17. After incubation at 37° C. for 5 days, the cells were stained with Giemsa, and numbers of colonies with more than 8 cells were counted under a microscope.
Another indication of the anticancer activity of CDA-II is the inhibition of colony formation of HBL-100 breast cancer cell. At the beginning, the breast cancer cells growing at the exponential phase were washed with HBS solution, then about 2 ml 0.05% trypsin-0.53 mM EDTA was added, and the solution was incubated at 37° C. for 10 minutes. Thereafter, the cell density was measured, then an aliquot was taken and diluted to 3×10^3 cells/ml. 0.5 ml of the diluted solution was added into 4.5 ml culture medium with or without CDA-II and incubated at 37° C. Five days later, the medium was discarded, and the cells were washed with isotonic saline, then methanol was added to fix cells for 15 minutes. The fixed cells were stained for 30 minutes with Giemsa staining solution diluted 20 fold. After the staining solution was discarded, the cells were washed with water and dried. The colony number above 8 cells was counted under a microscope to determine the anticancer activity of CDA-II (the result is shown in table 1).
The experiment was carried out according to FIG. 6. HBL-100 cells were cultured with different dosages of CDA-II, vitamin C and vitamin B17 alone, and with the combination of CDA-II and vitamin C, or the combination of CDA-II and vitamin B17.

[4] abbreviates: retinoic acid combined with 4 μM helper inducer.

SMILES strings stand for the structures.

With `CC[n+]1c(-c2ccccc2)c2cc(N)ccc2c2ccc(N)cc21` [ethidium bromide], the “Concentration to reach 0.5 reductive index” value in assay [1] is 0.95 µM.
Regarding `O=C(O)CNC(=O)c1ccccc1` [hippuric acid], in assay [1], the “Concentration to reach 0.5 reductive index (effective dose of differentiation inducer reduced to 50%)” value worked out at 8 mM.
Consider `CCN(CC)CCNc1ccc(CO)c2sc3ccccc3c(=O)c12` [hycanthone], for which the “Concentration to reach 0.5 reductive index” value in assay [1] is 2 µM.
Take `O=C(O)Cc1ccccc1` [phenylacetic acid]: the “Concentration to reach 0.5 reductive index (effective dose of differentiation inducer reduced to 50%)” value in assay [1] is 4 mM.
Regarding `CC1=C(/C=C/C(C)=C/C=C/C(C)=C/C(=O)O)C(C)(C)CCC1` [retinoic acid], in assay [2] (differentiation inducer (0.025-0.15 μM retinoic acid) used alone), the “Extent of differentiation (NBT+)” value is “about 85%”.
With `C=CC1=C(C)C(=O)N=C1C=c1[nH]c(=Cc2[nH]c(O)c(C)c2CCC(=O)O)c(CCC(=O)O)c1C` [uroerythrin], the “Extent of differentiation (NBT+)” value in assay [2] (setting [4]) came out at 100%. In addition, the “Concentration to reach 0.5 reductive index” value in assay [1] turned out to be 1.8 µM.
On the same counts, the results for `Cc1cc2nc3c(=O)[nH]c(=O)nc-3n(C[C@H](O)[C@H](O)[C@H](O)CO)c2cc1C` [vitamin B2, riboflavin] are 100% and 3.0 µM.
Take `N#CC(O[C@@H]1O[C@H](CO[C@@H]2O[C@H](CO)[C@@H](O)[C@H](O)[C@H]2O)[C@@H](O)[C@H](O)[C@H]1O)c1ccccc1` (stereo partly shown) [vitamin B17]: the “IC50, inhibition of the formation of colonies of HBL-100 human breast cancer cells” value in assay [3] (5 days, FIG. 7) was found to be 130 µg/mL. Also, the “Colony formation of HBL-100 cells: inhibition percentage, administered alone” value in assay [3] (vitamin B17 0.05 mg/ml alone) is recorded as 20%.
For the compound `O=C1O[C@H]([C@@H](O)CO)C(O)=C1O` [vitamin C], the IC50 (commonly the concentration at which inhibition is half-maximal) in assay [3] (Homo sapiens, HBL-100, 120 h, 5 days, FIG. 7, read-out: IC50, inhibition of the formation of colonies of HBL-100 human breast cancer cells) came to 530 µg/mL. In addition, the inhibition (commonly the share of the control response that was lost under treatment) at 200 µg/mL in assay [3] (Homo sapiens, HBL-100, vitamin C 0.2 mg/ml alone, read-out: Colony formation of HBL-100 cells: inhibition percentage, administered alone) came out at 12%.
